Marks after values point to notes of the source that are not given here.
Assays:
[1] = system: supraspinatus beef muscles; test: Muscle pH, pre-rigor injection of whole muscle
Protocol: (§1) Experiment were conducted to test the effects of pre-rigor injection of several compounds. Effects of these compounds on pH, color, tenderness and other related traits of low-value beef cuts were investigated. Ten steers (22 to 24 mo of age, 515 to 676 kg live weight) were slaughtered according to current industry procedures. Pre-rigor semimembranosus (from the round), triceps brachii and supraspinatus muscles (from the chuck) were excised, after evisceration (approximately 1 hour post-mortem), from both sides of the carcass. Muscle sections were randomly assigned to the treatments: sodium citrate (NaC; 200 mM), sodium fluoride (NaF; 200 mM), sodium acetate (NaA; 200 mM), and calcium chloride (CaCl2; 300 mM). The control samples remained on the carcass at 2° C. for 24 hours to simulate commercial conditions. Following a cooling, control muscles were removed from each carcass (4 replicates), vacuum packaged and transferred to the holding cooler with the other cuts at 2° C. Calcium chloride treatment was included to be compared with the other treatments.
(§2) At 2 hours post-mortem, each muscle was injected with a volume equal to 8% of the muscle weight using a four-needle hand injector. The temperature of solutions were 4° C. Each muscle was individually treated (2% of solution was added to give a total of 10% of muscle weight) and tumbled in a 75-pound capacity tumbler (Röschermatic, Oshabrück, Germany) for 30 min to insure uniform distribution of the solution.
(§3) Samples of each muscle (approximately 100 g) were taken at 0 hour (before injection), 24, and 72 hours after injection for determination of pH, oxidation-reduction potential, glycogen content, R-values, NAD, and NADH. The samples were then immediately frozen in liquid nitrogen and stored at −80° C. until they were powdered and analyzed. Fresh muscle samples (approximately 20 g) were taken at 72 hours after injection and assayed immediately for water holding capacity and sarcomere length.
(§4) Duplicate pre-rigor samples (5 g) were weighed from powdered sample and homogenized (Polytron, Brinkman Instruments, New York, N.Y.) in 50 mL of 5 mM iodoacetic acid, 150 mM potassium chloride (pH 7.0, 24° C.) to stop glycolysis (Ahn et al., 1992). The pH of the suspension was measured with a general purpose electrode (Corning Glass Works, Corning, N.Y.) attached to an Orion Model SA 720 pH meter (Orion Research, Inc., Boston, Mass.). Post-rigor muscle pH was determined by homogenizing 5 g of sample in 50 mL of deionized water (Winger et al., 1979).

[2] = system: semimembranosus beef muscles; test: Muscle pH, pre-rigor injection of whole muscle
Protocol: as §1, §2, §3, §4

[3] = system: triceps brachii beef muscles; test: Muscle pH, pre-rigor injection of whole muscle; conditions: 200 mM, calcium chloride 300 mM
Protocol: as §1, §2, §3, §4

[4] = system: Triceps brachii (TBR) steaks; test: Consumer panel palatability ratings of steaks; set-up: species or system steers; conditions: for Flavor / Tenderness: TBR, 9-point hedonic scale
Protocol: (§5) Thoracic limbs from 14 steers were chilled on the carcass (controls) or removed within 2 hours post-mortem and pumped to 10% of muscle weight with water, 200 mM or 400 mM sodium citrate solutions. The injections were performed at various sites along the muscle. The control remained on the carcass. Muscle pH and temperature were measured immediately prior to pumping. Experimental and control muscles were chilled at 2° C. for 24 hours. Steaks (2.54 cm thick) were removed after 24 hours from the Infraspinatus, Supraspinatus and Triceps brachii muscles and were either frozen immediately or aged for another 6 days and then evaluated. A consumer panel evaluated palatability juiciness, tenderness, connective tissue amount, and flavor desirability) on Infraspinatus and Triceps brachii steaks using 9-point hedonic scales (1 being very undesirable and 9 being very desirable) for each trait. Warner-Bratzler shear force values were determined on 1.27 cm-diameter cores from steaks that were broiled to an internal temperature of 70° C.

[5] = system: Infraspinatus (ISP) steaks; test: Consumer panel palatability ratings of steaks; set-up: species or system steers; conditions: for Flavor / Tenderness: ISP, 9-point hedonic scale
Protocol: as §5

Infraspinatus (ISP) = test: Warner-Bratzler shear force of muscle pumped pre-rigor with sodium citrate; set-up: species or system steers; unit not given here
Protocol: as §5

Supraspinatus (SSP) = test: as above; set-up: species or system steers; unit not given here
Protocol: as §5

Triceps brachii (TBR) = test: as above; set-up: species or system steers; unit not given here
Protocol: as §5

[6] = system: sternomandibularis beef muscles; test: pH of pre-rigor injected sectioned muscle; conditions: injection 10% of muscle weight, 200 mM (glucose, calcium chloride 300 mM)
Protocol: Pre-rigor beef muscle was sectioned and the sections were injected at approximately 1 hour post-mortem with a volume of treatment solution equal to 10% of the muscle weight. Objective color measurements were taken on pieces of each muscle section and the pieces were then frozen, powdered and stored at −80° C. for up to 10 days before testing pH and analyzing oxidation-reduction potential. Shear force was evaluated as described immediately above. Solutions used in this procedure were as follows: sodium citrate (200 mM), sodium acetate (200 mM), glucose (300 mM), calcium citrate (200 mM), calcium chloride (300 mM), injection with water, and no injection (control). The calcium citrate solution was prepared as a suspension using 0.25% carrageenan and 200 mM calcium citrate due to its insolubility in water. However, use of calcium citrate can be optimized by increasing solubility by means known in the art.

[7] = 24 h, 200 mM, calcium chloride 300 mM
[8] = 72 h, 200 mM, calcium chloride 300 mM
[9] = 400 mM, Triceps brachii, day 1 and day 7, P<0.10, data not shown
[10] = 400 mM, Infraspinatus, day 1 and day 7, P<0.10, data not shown

For `O=C([O-])CC(O)(CC(=O)[O-])C(=O)[O-].[Na+].[Na+].[Na+]` [Sodium citrate, sodium citrate], the “pH, 0 h” value ([1]; 0 h (before injection)) was 6.73, the “pH, 24 h” value [1, 7] was 6.04^b and the “pH, 72 h” value [1, 8] was 5.86^b. The “pH, 0 h” value ([2]; 0 h (before injection)) was 6.68, the “pH, 24 h” value [2, 7] was 5.97^a and the “pH, 72 h” value [2, 8] was 5.78^b. The “pH, 0 h” value ([3]; 0 h (before injection)) was 6.71, the “pH, 24 h” value ([3]; 24 h after injection) was 5.97^a and the “pH, 72 h” value ([3]; 72 h after injection) was 5.72^b. For the same compound, the Flavor ([4]; 200 mM, d1) was 5.23^a, the Tenderness ([4]; 200 mM, d1) was 4.81^b and the Flavor ([4]; 200 mM, d7) was 4.87^a. For the same compound, the Flavor ([4]; 400 mM, d1) was 5.30^a*, the Tenderness ([4]; 400 mM, d1) was 5.25^a and the Flavor ([4]; 400 mM, d7) was 5.18^a. The Tenderness ([4]; 400 mM, d7) was 5.48^a, the “Connective tissue amount rating vs controls” value [4, 9] was “more desirable” and the “Juiciness rating vs controls” value [4, 9] was “more desirable”. The Flavor ([5]; 200 mM, d1) was 5.33^a,b, the Tenderness ([5]; 200 mM, d1) was 5.36^a,b and the Flavor ([5]; 200 mM, d7) was 5.35^a. For the same compound, the Tenderness ([5]; 200 mM, d7) was 5.68^a, the Flavor ([5]; 400 mM, d1) was 5.49^a* and the Tenderness ([5]; 400 mM, d1) was 5.67^a. The Flavor ([5]; 400 mM, d7) was 5.41^a, the Tenderness ([5]; 400 mM, d7) was 5.90^a and the “Connective tissue amount rating vs controls” value [5, 10] was “more desirable”. The “Juiciness rating vs controls” value [5, 10] was “more desirable”, the WBSF (Infraspinatus (ISP); 200 mM, d1) was 3.57^b and the WBSF (Infraspinatus (ISP); 200 mM, d7) was 3.12^b. For the same compound, the WBSF (Infraspinatus (ISP); 400 mM, d1) was 3.32^a, the WBSF (Infraspinatus (ISP); 400 mM, d7) was 2.79^a and the WBSF (Supraspinatus (SSP); 200 mM, d1) was 4.09^a. The WBSF (Supraspinatus (SSP); 200 mM, d7) was 3.83^a, the WBSF (Supraspinatus (SSP); 400 mM, d1) was 3.91^a and the WBSF (Supraspinatus (SSP); 400 mM, d7) was 4.03^a. For the same compound, the WBSF (Triceps brachii (TBR); 200 mM, d1) was 3.85^a, the WBSF (Triceps brachii (TBR); 200 mM, d7) was 3.57^b and the WBSF (Triceps brachii (TBR); 400 mM, d1) was 3.55^a. The WBSF (Triceps brachii (TBR); 400 mM, d7) was 3.09^a, the “PH (0 h)” value ([6]; 0 h) was 6.86 and the “pH, 72 h” value ([6]; 72 h) was 5.77^bc.
